Data reported in US12383624B2, “Cargo delivery system and composition comprising the same” (SEOUL NATIONAL UNIVERSITY R&DB FOUNDATION, priority 2018, dated 2025).
One block for each compound: values may come before it.

Assays:
[1] = tested on: BRD4; assay: target protein degradation by immunoblotting (Experimental Example 6); assay type: cell-based, human, mouse; conditions: HEK293T, LNcap and MEF cell lines, 24 hours
Description: (§1) In order to evaluate the target proteion degradation efficacy by Examples 14 to 33 according the disclosure, the following experiment was conducted.
(§2) First, as cell lines primarily expressing the target protein, Human kidney-derived cancer cells, HEK293T (ATCC, CRL-3216), human prostate-derived cancer cells, LNcap (Korean Cell Line Bank, Korean Cell Line Research Foundation, KCLB No. 80018), mouse embryonic fibroblast, MEF (ATCC, SCRC-1008), human cervical cancer cells, HeLa (Korean Cell Line Bank, Korean Cell Line Research Foundation, KCLB No. 10002), human blood-derived cells, K562 (Korean Cell Line Bank, Korean Cell Line Research Foundation, KCLB No. 10243), human blood-derived cells, THP-1 (Korean Cell Line Bank, Korean Cell Line Research Foundation, KCLB No. 40202), human lung-derived cancer cells, A549 (Korean Cell Line Bank, Korean Cell Line Research Foundation, KCLB No. 10185), human breast-derived cancer cells, MCF7 (Korean Cell Line Bank, Korean Cell Line Research Foundation, KCLB No. 30022), human neuroblastoma, SH-SY5Y cell lines (Korean Cell Line Bank, Korean Cell Line Research Foundation, KCLB No. 22266), human pancreatic cancer cells, PANC-1 (Korean Cell Line Bank, Korean Cell Line Research Foundation, KCLB No. 21469) were cultured, respectively, in an incubator maintained at 5% carbon dioxide, using DMEM containing 10% FBS and 1% streptomycin/penicillin, RPMI1640, or MEM medium, and then the respective cells were dispensed in 12-well plate. Additional incubation was performed for 24 hours to ensure that each cell completely fixed to the surface of the plate.
(§3) In order to confirm whether Compounds A to W of Examples 14 to 33 degrade the target protein respectively, the cultured cells were treated with the compound of each example for 24 hours and then collected.
(§4) In this case, HEK293T, which is human kidney-derived cancer cells, LNcap, which is human prostate-derived cancer cells, and MEF cell line, which is mouse embryonic fibroblasts, were treated with Example 14 (Compound A). […]

[2] = tested on: BRD2; assay: as above; assay type: cell-based, human, mouse; conditions: HEK293T, LNcap and MEF cell lines, 24 hours
Description: as §1, §2, §3, §4

[3] = tested on: BRD3; assay: as above; assay type: cell-based, human, mouse; conditions: HEK293T, LNcap and MEF cell lines, 24 hours
Description: as §1, §2, §3, §4

[4] = biological target: T1, BCR-Abl (Homo sapiens, UniProt P00519); assay: as above; assay type: cell-based; conditions: K562 cell line, 24 hours
T1 construct: BCR (N-terminal fusion partner, P11274); endogenous in cells; host or cells: K562; the other entry of the earlier key: BCR (P11274, Breakpoint cluster region protein)
Description: as §1, §2, §3
(§5) In this case, HEK293T, which is human kidney-derived cancer cells, LNcap, which is human prostate-derived cancer cells, and MEF cell line, which is mouse embryonic fibroblasts, were treated with Example 14 (Compound A). HEK293T, which is human kidney-derived cancer cells, was treated with Example 15 (Compound B). HEK293T cell line, which is human kidney-derived cancer cells, and HeLa cell line, which is cervical-derived cancer cells, were treated with Example 16 (Compound C). HEK293T cell line, which is human kidney-derived cancer cells, was treated with Example 17 (Compound D). K562 cell line, which is human blood-derived cells, was treated with Example 18 (Compound E). HEK293T cell line, which is human kidney-derived cancer cells, was treated with Example 19 (Compound F). THP-1 cell line, which is human blood-derived cells, was treated with Example 20 (Compound G). A549 cell line, which is human lung-derived cancer cells, was treated with Example 21 (Compound H). A549 cell line, which is human lung-derived cancer cells, was treated with Example 22 (Compound I). MCF7 cell line, which is human breast-derived cancer cells, was treated with Example 23 (Compound J). HEK293T cell line, which is […], was treated with Example 24 (Compound L). SH-SY5Y, which is human neuroblastoma, and HeLa cell line, which is cervical-derived cancer cells, were treated with Example 25 (Compound M). THP-1 cell line, which is human blood-derived cells, was treated with Example 26 (Compound P). SH-SY5Y, which is human neuroblastoma, and HeLa cell line, which is cervical-derived cancer cells, were treated with Example 27 (Compound Q). SH-SY5Y, which is human neuroblastoma, and HeLa cell line, which is cervical-derived cancer cells, were treated with Example 28 (Compound R). HeLa cell line, a human cervical-derived cancer cell, was treated with Example 29 (Compound S). SH-SY5Y cell line, which is human neuroblastoma, was treated with Example 30 (Compound T). SH-SY5Y cell line, which is human neuroblastoma, was treated with Example 31 (Compound U). PANC-1 cell line, which is human pancreatic-derived cancer cells, was treated with Example 32 (Compound V). […]

[5] = biological target: T2, c-Abl (Homo sapiens, UniProt P00519); assay: as above; assay type: cell-based; conditions: K562 cell line, 24 hours
T2 construct: as cell lines primarily expressing the target protein; endogenous in cells; host or cells: K562
Description: as §1, §2, §3, §5

[6] = tested on: PDE4; assay: as above; assay type: cell-based, human; conditions: HEK293T, 24 hours
Description: as §1, §2, §3, §5

[7] = biological target: T3, p-53 (Homo sapiens, UniProt P04637, R273H); assay: as above; assay type: cell-based; conditions: PANC-1 cell line, 24 hours
T3 construct: endogenous in cells; host or cells: PANC-1
Description: as §1, §2, §3, §5

[8] = tested on: Tau; assay: as above; assay type: cell-based, human; conditions: SH-SY5Y cell line, 24 hours
Description: as §1, §2, §3, §5

[9] = tested on: p62 and each target protein; assay: p62-mediated delivery of target proteins to autophagy by immunofluorescence staining and confocal microscopy; assay type: cell-based; conditions: cells cultured 24 hours with compound
Description: In order to confirm the efficacy of P62-mediated delivery of target proteins to autophagy after treatment with the example compounds of the disclosure, immunofluorescence staining was performed by using p62 and each target protein as markers. The cover glass was placed on a 24-well plate for immunofluorescence staining, cell lines primarily expressing the target protein or gene recombinant cell lines were cultured. The cells were dispensed and cultured 24 hours, and then treated with Example 1 (ATCRET-1104), Example 5 (Anle138b F105), Example 7 (Vinclozolin 2204), Example 8 (PHTPP 1304), Example 9 (Baicalein 2204), Example 10 (Resveratrol 1105), Example Example 11 (BTA-1 1104), Example 30 (Compound T) according to the disclosure, respectively. The cells were further cultured for 24 hours for the action of the compounds, the medium was removed, and the cells were fixed using formaldehyde at room temperature. In order to prevent non-specific staining, the cells were reacted with the blocking solution at room temperature for 1 hour, and then the p62 antibody and target protein antibody diluted at a certain ratio were treated using the block solution, and then reacted at room temperature for 1 hour. […]

[10] = biological target: T4, ACVR1 (Homo sapiens, UniProt Q04771); assay: target protein degradation by immunoblotting (Experimental Example 6); assay type: cell-based; conditions: HEK293T and HeLa cell lines, 24 hours
T4 construct: as cell lines primarily expressing the target protein; endogenous in cells; host or cells: HEK293T, HeLa
T4 sequence (Q04771 21-509): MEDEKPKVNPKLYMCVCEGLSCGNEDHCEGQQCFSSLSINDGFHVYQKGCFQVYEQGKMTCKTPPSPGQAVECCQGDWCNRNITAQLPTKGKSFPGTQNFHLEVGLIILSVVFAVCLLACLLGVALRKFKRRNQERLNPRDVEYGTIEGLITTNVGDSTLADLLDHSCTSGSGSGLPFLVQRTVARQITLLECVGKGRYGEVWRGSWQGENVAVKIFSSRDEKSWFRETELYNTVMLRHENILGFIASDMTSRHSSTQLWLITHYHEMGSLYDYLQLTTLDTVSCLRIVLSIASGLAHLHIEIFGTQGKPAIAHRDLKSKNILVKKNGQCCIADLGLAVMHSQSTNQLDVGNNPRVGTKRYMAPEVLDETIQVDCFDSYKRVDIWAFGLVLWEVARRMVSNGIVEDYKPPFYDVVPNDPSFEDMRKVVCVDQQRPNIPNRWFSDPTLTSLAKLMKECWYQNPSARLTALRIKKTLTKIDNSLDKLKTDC
Description: as §1, §2, §3, §5

[11] = tested on: CK2; assay: as above; assay type: cell-based, human; conditions: HEK293T cell line, 24 hours
Description: as §1, §2, §3, §5

[12] = biological target: T5, ERα (Homo sapiens, UniProt P03372); assay: as above; assay type: cell-based; conditions: MCF7 cell line, 24 hours
T5 construct: as cell lines primarily expressing the target protein; endogenous in cells; host or cells: MCF7
T5 sequence (P03372 whole entry): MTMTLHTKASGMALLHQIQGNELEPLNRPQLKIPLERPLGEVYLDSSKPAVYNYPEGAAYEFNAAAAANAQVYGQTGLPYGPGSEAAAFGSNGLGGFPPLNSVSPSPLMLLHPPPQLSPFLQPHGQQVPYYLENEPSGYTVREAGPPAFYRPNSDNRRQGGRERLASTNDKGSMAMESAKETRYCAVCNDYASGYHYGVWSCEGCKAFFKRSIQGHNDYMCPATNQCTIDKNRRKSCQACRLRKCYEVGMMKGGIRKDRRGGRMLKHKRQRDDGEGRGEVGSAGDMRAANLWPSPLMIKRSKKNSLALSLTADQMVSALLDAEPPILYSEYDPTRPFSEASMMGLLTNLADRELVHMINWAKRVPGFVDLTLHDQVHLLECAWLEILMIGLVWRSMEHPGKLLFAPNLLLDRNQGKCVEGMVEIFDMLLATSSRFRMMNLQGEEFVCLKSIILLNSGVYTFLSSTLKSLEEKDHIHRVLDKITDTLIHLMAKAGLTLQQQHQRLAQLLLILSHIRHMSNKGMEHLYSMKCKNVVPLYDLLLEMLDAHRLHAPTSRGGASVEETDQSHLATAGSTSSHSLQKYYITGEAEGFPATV
Description: as §1, §2, §3, §5

[13] = biological target: T6, Chk1 (Homo sapiens, UniProt O14757); assay: as above; assay type: cell-based; conditions: HEK293T cell line, 24 hours
T6 construct: as cell lines primarily expressing the target protein; endogenous in cells; host or cells: HEK293T
T6 sequence (O14757 whole entry): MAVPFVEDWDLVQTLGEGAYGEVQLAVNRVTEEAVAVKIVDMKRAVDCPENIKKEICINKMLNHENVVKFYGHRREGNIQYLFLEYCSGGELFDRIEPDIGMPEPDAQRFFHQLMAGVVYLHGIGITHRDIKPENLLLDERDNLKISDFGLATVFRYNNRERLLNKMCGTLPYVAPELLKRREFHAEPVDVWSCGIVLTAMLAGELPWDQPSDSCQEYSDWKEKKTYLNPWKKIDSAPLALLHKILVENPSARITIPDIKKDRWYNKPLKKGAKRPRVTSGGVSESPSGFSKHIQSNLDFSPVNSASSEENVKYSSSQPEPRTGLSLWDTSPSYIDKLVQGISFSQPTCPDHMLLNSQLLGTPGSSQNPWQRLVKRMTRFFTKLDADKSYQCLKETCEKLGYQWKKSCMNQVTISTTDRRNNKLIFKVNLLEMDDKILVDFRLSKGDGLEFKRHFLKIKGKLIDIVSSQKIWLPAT
Description: as §1, §2, §3, §5

SMILES: Cc1sc2c(c1C)C(c1ccc(Cl)cc1)=N[C@@H](CC(=O)NCCOCCOCCNC[C@@H](O)COc1ccc(OCc3ccccc3)c(OCc3ccccc3)c1)c1nnc(C)n1-2 [Example 14, N-(2-(2-(2-(((R)-3-(3,4-bis(benzyloxy)phenoxy)-2-hydroxypropyl)amino)ethoxy)ethoxy)ethyl)-2-((S)-4-(4-chlorophenyl)-2,3,9-trimethyl-6H-thieno[3,2-f][1,2,4]triazolo[4,3-a][1,4]diazepin-6-yl)acetamide]
- degradation of target protein BRD4 (decrease in level vs Control) [1]: can be degraded
- degradation of target protein BRD2 (decrease in level vs Control) [2]: can be degraded
- degradation of target protein BRD3 (decrease in level vs Control) [3]: can be degraded

- degradation of target protein BCR-Abl (decrease in level vs Control) [4]: can be degraded
- degradation of target protein c-Abl (decrease in level vs Control) [5]: can be degraded
SMILES: Cc1nc(Nc2ncc(C(=O)Nc3c(C)cccc3Cl)s2)cc(N2CCN(CCNCCOCCOCCNC[C@@H](O)COc3ccc(OCc4ccccc4)c(OCCCc4ccccc4)c3)CC2)n1 [Example 18, (R)-2-((6-(4-(15-(4-(benzyloxy)-3-(3-phenylpropoxy)phenoxy)-14-hydroxy-6,9-dioxa-3,12-diazapentadecyl)piperazin-1-yl)-2-methylpyrimidin-4-yl)amino)-N-(2-chloro-6-methylphenyl)thiazole-5-carboxamide]

SMILES: COc1ccc([C@]2(C#N)CC[C@@H](C(=O)NCCOCCOCCNCc3ccc(OCc4ccccc4)c(OCc4ccccc4)c3)CC2)cc1OC1CCCC1 [Example 15, (1s,4s)-N-(2-(2-(2-((3,4-bis(benzyloxy)benzyl)amino)ethoxy)ethoxy)ethyl)-4-cyano-4-(3-(cyclopentyloxy)-4-methoxyphenyl)cyclohexane-1-carboxamide]
- degradation of target protein PDE4 (decrease in level vs Control) [6]: can be degraded

SMILES: CN(CCOCCOCCOCCNC[C@@H](O)COc1cccc(OCc2ccc(F)cc2)c1)c1ccc2nc3ccc(=[N+](C)C)cc-3sc2c1.O=C([O-])C(F)(F)F [Example 33, (R)—N-(7-((15-(3-((4-fluorobenzyl)oxy)phenoxy)-14-hydroxy-3,6,9-trioxa-12-azapentadecyl) (methyl)amino)-3H-phenothiazin-3-ylidene)-N-methylmethanaminium 2,2,2-trifluoroacetate]
- degradation of target protein p-53 (decrease in level vs Control) [7]: can be degraded

SMILES: O=C(CCCc1ccccc1)NCCOCCOCCOCCNC[C@@H](O)COc1cccc(OCc2ccc(F)cc2)c1 [Example 30, (R)—N-(15-(3-((4-fluorobenzyl)oxy)phenoxy)-14-hydroxy-3,6,9-trioxa-12-azapentadecyl)-4-phenylbutanamide]
- degradation of target protein Tau (decrease in level vs Control) [8]: can be degraded
- intracellular puncta formation of p62 proteins and of target proteins, and local co-existence thereof [9]: increase gradually

SMILES: CN(CCOCCOCCOCCNC[C@@H](O)COc1ccc(OCc2ccc(F)cc2)c(OCc2ccc(F)cc2)c1)c1ccc2nc3ccc(=[N+](C)C)cc-3sc2c1 [Example 32, (R)—N-(7-((15-(3,4-bis((4-fluorobenzyl)oxy)phenoxy)-14-hydroxy-3,6,9-trioxa-12-azapentadecyl) (methyl)amino)-3H-phenothiazin-3-ylidene)-N-methylmethanaminium 2,2,2-trifluoroacetate]
- degradation of target protein p-53 (decrease in level vs Control) [7]: can be degraded

- degradation of target protein ACVR1 (decrease in level vs Control) [10]: can be degraded
SMILES: O[C@H](CNCCOCCOCCN1CCN(c2ccc(-c3cnc4c(-c5cccc6ncccc56)cnn4c3)cc2)CC1)COc1cccc(OCCc2ccccc2)c1 [Example 16, (R)-1-(3-phenethoxyphenoxy)-3-((2-(2-(2-(4-(4-(3-(quinolin-5-yl)pyrazolo[1,5-a]pyrimidin-6-yl)phenyl)piperazin-1-yl)ethoxy)ethoxy)ethyl)amino)propan-2-ol]

SMILES: O=C(O)c1ccc2c(c1)nc(Nc1cccc(NCCOCCOCCNC[C@@H](O)COc3ccc(OCc4ccccc4)c(OCCc4ccccc4)c3)c1)c1ccncc12 [Example 19, (R)-5-((3-((2-(2-(2-((3-(4-(benzyloxy)-3-phenethoxyphenoxy)-2-hydroxypropyl)amino)ethoxy)ethoxy)ethyl)amino)phenyl)amino)benzo[c][2,6]naphthyridine-8-carboxylic acid]
- degradation of target protein CK2 (decrease in level vs Control) [11]: can be degraded

- degradation of target protein ERα (decrease in level vs Control) [12]: can be degraded
SMILES: CCN(CCCCNCCOCCOCCNCc1ccc(OCc2ccccc2)c(OCc2ccccc2)c1)CCOc1ccc(C(=O)c2c(-c3ccc(O)cc3)sc3cc(O)ccc23)cc1 [Example 23, (4-((1-(3,4-bis(benzyloxy)phenyl)-16-ethyl-5,8-dioxa-2,11,16-triazaoctadecan-18-yl)oxy)phenyl) (6-hydroxy-2-(4-hydroxyphenyl)benzo[b]thiophen-3-yl)methanone]

- degradation of target protein Chk1 (decrease in level vs Control) [13]: can be degraded
SMILES: NC(=O)Nc1cc(-c2cccc(F)c2)sc1C(=O)N[C@H]1CCCN(CCOCCOCCNC[C@@H](O)COc2cccc(OCCc3ccccc3)c2)C1 [Example 17, 5-(3-fluorophenyl)-N—((S)-1-(2-(2-(2-(((R)-2-hydroxy-3-(3-phenethoxyphenoxy)propyl)amino)ethoxy)ethoxy)ethyl)piperidin-3-yl)-3-ureidothiophene-2-carboxamide]
